This note sets out measurements from US9346798B2, “Dihydrobenzoxazine and tetrahydroquinoxaline sodium channel inhibitors” (AMGEN INC., priority 2012, dated 2016).

Common to all, as to format: cell-based
Data set [1] deals with T1, Nav 1.7 (Homo sapiens (Human), UniProt Q15858). Put plainly: Nav 1.7 in vitro assay, IonWorks Quattro (IWQ) population patch-clamp. To be noted: HEK 293 cells stably transfected with Nav 1.7; 26th pulse to -20 mV.
Data set [2] deals with T1, Nav 1.7. Put plainly: Nav 1.7 in vitro PX assay, PatchXpress whole cell voltage clamp. As to conditions: HEK 293 cells stably transfected with human Nav1.7; partially inactivated state (20 to 50% inactivation). An outline of the steps: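 Partially inactivated channels (20–50% inactivation at holding potential) were probed on automated patch clamp in stably transfected HEK293 cells, stepping to −10 mV for 20 msec every 10 s (0.1 Hz).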

Another data set addresses Nav 1.5 (Homo sapiens (Human), UniProt Q14524). In words: Nav 1.5 in vitro assay, IonWorks Quattro (IWQ) population patch-clamp. To be noted: HEK 293 cells stably transfected with Nav 1.5; 26th pulse to -20 mV. Background: In patch-clamp work, channel activity is measured electrically.

The term IC50 denotes the concentration that inhibits the measured activity by half.

Chain of Nav 1.5 (Q14524 whole entry): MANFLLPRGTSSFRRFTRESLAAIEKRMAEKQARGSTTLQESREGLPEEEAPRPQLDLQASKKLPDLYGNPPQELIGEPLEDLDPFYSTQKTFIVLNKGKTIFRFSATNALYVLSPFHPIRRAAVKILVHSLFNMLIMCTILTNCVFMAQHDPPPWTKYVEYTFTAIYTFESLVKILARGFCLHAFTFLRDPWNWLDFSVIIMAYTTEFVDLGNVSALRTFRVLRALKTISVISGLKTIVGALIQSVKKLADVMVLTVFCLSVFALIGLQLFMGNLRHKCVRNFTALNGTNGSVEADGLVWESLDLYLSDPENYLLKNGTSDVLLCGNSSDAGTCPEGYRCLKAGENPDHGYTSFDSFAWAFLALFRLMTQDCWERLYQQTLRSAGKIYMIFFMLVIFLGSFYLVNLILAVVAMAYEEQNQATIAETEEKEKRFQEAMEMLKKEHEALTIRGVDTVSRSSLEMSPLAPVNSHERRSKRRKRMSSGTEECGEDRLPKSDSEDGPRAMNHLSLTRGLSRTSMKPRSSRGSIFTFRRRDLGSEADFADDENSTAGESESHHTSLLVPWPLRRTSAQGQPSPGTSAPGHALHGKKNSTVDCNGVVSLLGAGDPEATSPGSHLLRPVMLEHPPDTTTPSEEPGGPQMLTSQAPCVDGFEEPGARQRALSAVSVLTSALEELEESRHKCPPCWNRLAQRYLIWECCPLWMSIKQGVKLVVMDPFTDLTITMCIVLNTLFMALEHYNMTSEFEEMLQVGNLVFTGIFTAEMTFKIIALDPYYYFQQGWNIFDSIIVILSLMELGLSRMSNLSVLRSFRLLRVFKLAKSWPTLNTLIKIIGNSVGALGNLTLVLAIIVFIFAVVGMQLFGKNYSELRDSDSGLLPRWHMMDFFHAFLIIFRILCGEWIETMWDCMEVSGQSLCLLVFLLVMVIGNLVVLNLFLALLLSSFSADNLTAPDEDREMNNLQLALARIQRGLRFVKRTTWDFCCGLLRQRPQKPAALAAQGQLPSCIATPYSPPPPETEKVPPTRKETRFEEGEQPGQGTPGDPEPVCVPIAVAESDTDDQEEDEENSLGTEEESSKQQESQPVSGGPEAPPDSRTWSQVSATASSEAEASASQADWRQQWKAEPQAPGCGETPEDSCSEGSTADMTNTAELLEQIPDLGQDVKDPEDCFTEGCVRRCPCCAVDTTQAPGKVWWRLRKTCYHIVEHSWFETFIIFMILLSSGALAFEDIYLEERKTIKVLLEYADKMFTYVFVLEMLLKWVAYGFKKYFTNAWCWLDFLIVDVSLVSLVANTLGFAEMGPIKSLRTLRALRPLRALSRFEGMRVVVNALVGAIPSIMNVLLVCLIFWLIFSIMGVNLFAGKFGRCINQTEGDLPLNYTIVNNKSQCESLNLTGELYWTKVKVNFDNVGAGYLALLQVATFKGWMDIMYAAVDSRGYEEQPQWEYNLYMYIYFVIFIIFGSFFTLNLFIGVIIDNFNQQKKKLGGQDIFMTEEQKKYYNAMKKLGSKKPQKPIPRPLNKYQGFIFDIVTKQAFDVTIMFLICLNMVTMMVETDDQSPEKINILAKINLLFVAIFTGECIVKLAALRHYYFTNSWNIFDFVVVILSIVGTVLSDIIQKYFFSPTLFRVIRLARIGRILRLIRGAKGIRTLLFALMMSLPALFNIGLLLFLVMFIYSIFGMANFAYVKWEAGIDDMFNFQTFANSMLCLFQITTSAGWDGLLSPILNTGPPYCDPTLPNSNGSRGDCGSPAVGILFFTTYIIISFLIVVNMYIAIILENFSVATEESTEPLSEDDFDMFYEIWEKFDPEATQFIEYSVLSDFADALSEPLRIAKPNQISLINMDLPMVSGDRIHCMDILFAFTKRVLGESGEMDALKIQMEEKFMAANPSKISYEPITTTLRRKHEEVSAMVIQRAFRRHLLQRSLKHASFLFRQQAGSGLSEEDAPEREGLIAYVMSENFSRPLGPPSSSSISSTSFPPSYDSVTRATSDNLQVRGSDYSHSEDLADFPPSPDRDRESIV
T1 sequence (Q15858 whole entry): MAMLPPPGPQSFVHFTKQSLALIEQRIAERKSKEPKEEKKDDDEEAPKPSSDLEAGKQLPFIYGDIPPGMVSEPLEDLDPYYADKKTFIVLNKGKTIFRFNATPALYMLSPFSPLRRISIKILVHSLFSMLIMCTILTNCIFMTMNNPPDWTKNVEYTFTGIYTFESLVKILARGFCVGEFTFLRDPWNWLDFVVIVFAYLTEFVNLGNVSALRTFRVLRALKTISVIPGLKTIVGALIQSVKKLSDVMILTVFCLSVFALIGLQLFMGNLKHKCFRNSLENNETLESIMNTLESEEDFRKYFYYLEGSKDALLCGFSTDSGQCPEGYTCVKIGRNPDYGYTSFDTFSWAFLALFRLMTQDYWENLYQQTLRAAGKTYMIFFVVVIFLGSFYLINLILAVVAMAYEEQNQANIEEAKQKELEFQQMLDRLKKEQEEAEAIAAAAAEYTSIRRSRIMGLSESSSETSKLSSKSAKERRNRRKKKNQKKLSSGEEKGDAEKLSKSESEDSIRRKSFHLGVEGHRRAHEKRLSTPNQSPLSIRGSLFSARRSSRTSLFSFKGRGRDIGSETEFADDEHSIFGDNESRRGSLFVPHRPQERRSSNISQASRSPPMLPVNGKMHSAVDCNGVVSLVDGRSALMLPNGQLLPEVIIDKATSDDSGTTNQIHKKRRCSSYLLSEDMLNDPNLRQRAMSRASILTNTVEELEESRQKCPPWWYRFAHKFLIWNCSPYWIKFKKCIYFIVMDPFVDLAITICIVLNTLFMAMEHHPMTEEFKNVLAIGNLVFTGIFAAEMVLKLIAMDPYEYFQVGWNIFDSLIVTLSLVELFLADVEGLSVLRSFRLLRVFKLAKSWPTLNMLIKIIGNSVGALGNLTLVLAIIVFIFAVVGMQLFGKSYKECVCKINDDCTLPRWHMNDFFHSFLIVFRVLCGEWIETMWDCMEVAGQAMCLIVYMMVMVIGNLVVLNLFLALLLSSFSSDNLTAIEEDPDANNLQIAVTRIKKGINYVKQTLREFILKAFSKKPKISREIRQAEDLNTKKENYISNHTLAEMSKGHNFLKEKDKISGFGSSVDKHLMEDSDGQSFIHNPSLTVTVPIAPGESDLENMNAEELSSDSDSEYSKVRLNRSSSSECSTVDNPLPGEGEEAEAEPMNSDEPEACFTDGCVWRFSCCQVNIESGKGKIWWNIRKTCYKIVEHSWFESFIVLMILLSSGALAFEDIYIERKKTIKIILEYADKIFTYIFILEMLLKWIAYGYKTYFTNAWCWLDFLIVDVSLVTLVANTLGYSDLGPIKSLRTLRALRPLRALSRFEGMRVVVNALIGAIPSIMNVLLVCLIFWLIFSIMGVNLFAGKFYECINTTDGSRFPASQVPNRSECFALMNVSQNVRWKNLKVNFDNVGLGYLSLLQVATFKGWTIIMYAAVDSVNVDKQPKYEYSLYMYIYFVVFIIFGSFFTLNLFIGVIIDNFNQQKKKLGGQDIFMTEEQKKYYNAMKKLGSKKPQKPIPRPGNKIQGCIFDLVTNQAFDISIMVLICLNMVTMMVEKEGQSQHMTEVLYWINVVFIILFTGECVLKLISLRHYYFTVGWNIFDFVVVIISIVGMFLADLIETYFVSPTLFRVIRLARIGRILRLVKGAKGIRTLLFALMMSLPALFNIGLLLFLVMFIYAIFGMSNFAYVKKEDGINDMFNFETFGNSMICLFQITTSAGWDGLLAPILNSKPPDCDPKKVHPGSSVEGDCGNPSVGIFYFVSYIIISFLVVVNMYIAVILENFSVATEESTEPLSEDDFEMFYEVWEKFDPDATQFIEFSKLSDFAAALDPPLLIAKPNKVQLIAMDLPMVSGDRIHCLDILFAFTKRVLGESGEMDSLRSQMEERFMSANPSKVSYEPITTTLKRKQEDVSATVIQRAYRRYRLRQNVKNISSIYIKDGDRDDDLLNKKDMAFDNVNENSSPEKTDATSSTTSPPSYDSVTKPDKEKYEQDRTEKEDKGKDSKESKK

With `O=S(=O)(Nc1ccncn1)c1ccc2c(c1)OCCN2c1ccc(C(F)(F)F)cc1Cl` [Example 32, 4-(2-Chloro-4-(Trifluoromethyl)Phenyl)-N-(Pyrimidin-4-Yl)-3,4-Dihydro-2H-Benzo[B][1,4]Oxazine-7-Sulfonamide], the IC50 at Nav 1.7 [1] turned out to be 72.5 nM; against Nav 1.7 [2], 534 nM; against Nav 1.5, 4770 nM.

On to `O=S(=O)(Nc1ncns1)c1ccc2c(c1)OCCN2c1cccc2ncccc12` [Example 33, 4-(Quinolin-5-Yl)-N-(1,2,4-Thiadiazol-5-Yl)-3,4-Dihydro-2H-Benzo[B][1,4]Oxazine-7-Sulfonamide], for which the IC50 on Nav 1.7 [1] is 141 nM; on Nav 1.7 [2], 1190 nM; on Nav 1.5, greater than 10000 nM.

For the molecule `O=S(=O)(Nc1ncns1)c1ccc2c(c1)OCC(c1ccccc1)N2c1ccc(C(F)(F)F)cc1` (stereo not drawn) [Example 34, 3-Phenyl-N-(1,2,4-Thiadiazol-5-Yl)-4-(4-(Trifluoromethyl)Phenyl)-3,4-Dihydro-2H-Benzo[B][1,4]Oxazine-7-Sulfonamide], the half-inhibitory concentration (IC50) at Nav 1.7 [1] was 2450 nM; on Nav 1.7 [2] it was 3460 nM; on Nav 1.5, greater than 10000 nM.

`O=S(=O)(Nc1ncns1)c1ccc2c(c1)OCCN2c1cccc(OC(F)(F)F)c1` [Example 35, N-(1,2,4-Thiadiazol-5-Yl)-4-(3-(Trifluoromethoxy)Phenyl)-3,4-Dihydro-2H-Benzo[B][1,4]Oxazine-7-Sulfonamide]: the 50% inhibitory concentration (IC50) against Nav 1.7 [1] is 43.5 nM; at Nav 1.7 [2] it was 138 nM; at Nav 1.5, greater than 10000 nM.

For `O=S(=O)(Nc1ncns1)c1ccc2c(c1)OCCN2c1cccc2ccccc12` [Example 36, 4-(Naphthalen-1-Yl)-N-(1,2,4-Thiadiazol-5-Yl)-3,4-Dihydro-2H-Benzo[B][1,4]Oxazine-7-Sulfonamide], the half-inhibitory concentration (IC50) against Nav 1.7 [1] is 31.5 nM; at Nav 1.7 [2], 145 nM; against Nav 1.5, greater than 10000 nM.

In the case of `COc1ccc(N2CCOc3cc(S(=O)(=O)Nc4ncns4)ccc32)cc1` [Example 37, 4-(4-Methoxyphenyl)-N-(1,2,4-Thiadiazol-5-Yl)-3,4-Dihydro-2H-Benzo[B][1,4]Oxazine-7-Sulfonamide], the figures for the half-maximal inhibitory concentration (IC50) against Nav 1.7 [1], at Nav 1.7 [2] and on Nav 1.5 were 207 nM, 2200 nM and greater than 10000 nM, respectively.

With `COCCOc1ccc(N2CCOc3cc(S(=O)(=O)Nc4ncns4)ccc32)cc1` [Example 39, 4-(4-(2-Methoxyethoxy)Phenyl)-N-(1,2,4-Thiadiazol-5-Yl)-3,4-Dihydro-2H-Benzo[B][1,4]Oxazine-7-Sulfonamide], the IC50 was 333 nM against Nav 1.7 [1], 9220 nM on Nav 1.7 [2] and greater than 10000 nM against Nav 1.5.

Consider `O=S(=O)(Nc1nccs1)c1ccc2c(c1)OCCN2c1ccc(Cl)cc1` [Example 40, 4-(4-Chlorophenyl)-N-(Thiazol-2-Yl)-3,4-Dihydro-2H-Benzo[B][1,4]Oxazine-7-Sulfonamide], for which the IC50 against Nav 1.7 [1] was 713 nM; at Nav 1.7 [2], 4320 nM; against Nav 1.5, greater than 10000 nM.

As for `O=S(=O)(Nc1nccs1)c1ccc2c(c1)OCCN2c1cccc(Cl)c1` [Example 41, 4-(3-Chlorophenyl)-N-(Thiazol-2-Yl)-3,4-Dihydro-2H-Benzo[B][1,4]Oxazine-7-Sulfonamide], the IC50 came to 111 nM at Nav 1.7 [1], 640 nM against Nav 1.7 [2] and 4930 nM on Nav 1.5.

`Cn1nccc1-c1cc(C(F)(F)F)ccc1N1CCOc2cc(S(=O)(=O)Nc3nccs3)ccc21` [Example 42, 4-(2-(1-Methyl-1H-Pyrazol-5-Yl)-4-(Trifluoromethyl)Phenyl)-N-(Thiazol-2-Yl)-3,4-Dihydro-2H-Benzo[B][1,4]Oxazine-7-Sulfonamide]: the IC50 against Nav 1.7 [1] is 121 nM; against Nav 1.7 [2] it was 1540 nM; on Nav 1.5 it was greater than 10000 nM.

Take `O=S(=O)(Nc1nccs1)c1ccc2c(c1)OCCN2c1ccc(C(F)(F)F)cc1Br` [Example 43, 4-(2-Bromo-4-(Trifluoromethyl)Phenyl)-N-(Thiazol-2-Yl)-3,4-Dihydro-2H-Benzo[B][1,4]Oxazine-7-Sulfonamide]: the IC50 on Nav 1.7 [1] was 115 nM; at Nav 1.7 [2], 975 nM; against Nav 1.5, 1850 nM.

Consider `CN1CC=C(c2cc(C(F)(F)F)ccc2N2CCOc3cc(S(=O)(=O)Nc4nccs4)ccc32)CC1` [Example 44, 4-(2-(1-Methyl-1,2,3,6-Tetrahydropyridin-4-Yl)-4-(Trifluoromethyl)Phenyl)-N-(Thiazol-2-Yl)-3,4-Dihydro-2H-Benzo[B][1,4]Oxazine-7-Sulfonamide], for which the IC50 against Nav 1.7 [1] turned out to be 14 nM; at Nav 1.7 [2] it was 68.7 nM; against Nav 1.5, 3590 nM.

Regarding `O=S(=O)(Nc1ccncn1)c1ccc2c(c1)OCCN2c1ccc(C(F)(F)F)cc1C1=CCNCC1` [Example 45, N-(Pyrimidin-4-Yl)-4-(2-(1,2,3,6-Tetrahydropyridin-4-Yl)-4-(Trifluoromethyl)Phenyl)-3,4-Dihydro-2H-Benzo[B][1,4]Oxazine-7-Sulfonamide 2,2,2-Trifluoroacetate], the results for the half-maximal inhibitory concentration (IC50) on Nav 1.7 [1], at Nav 1.7 [2] and against Nav 1.5 were 6.2 nM, 135 nM and 1200 nM, respectively.

As for `O=S(=O)(Nc1nccs1)c1ccc2c(c1)OCCN2c1ccccc1Cl` [Example 46, 4-(2-Chlorophenyl)-N-(Thiazol-2-Yl)-3,4-Dihydro-2H-Benzo[B][1,4]Oxazine-7-Sulfonamide], the IC50 is 165 nM against Nav 1.7 [1], 1080 nM against Nav 1.7 [2] and greater than 10000 nM against Nav 1.5.

On to `O=S(=O)(Nc1ccncn1)c1ccc2c(c1)OCCN2c1ccc(C(F)(F)F)cc1Br` [Example 47, 4-(2-Bromo-4-(Trifluoromethyl)Phenyl)-N-(Pyrimidin-4-Yl)-3,4-Dihydro-2H-Benzo[B][1,4]Oxazine-7-Sulfonamide], for which the results for the IC50 against Nav 1.7 [1], on Nav 1.7 [2] and against Nav 1.5 were 14.5 nM, 303 nM and 7930 nM, respectively.

As for `COCCNc1cc(C(F)(F)F)ccc1N1CCOc2cc(S(=O)(=O)Nc3ccncn3)ccc21` [Example 48, 4-(2-((2-Methoxyethyl)Amino)-4-(Trifluoromethyl)Phenyl)-N-(Pyrimidin-4-Yl)-3,4-Dihydro-2H-Benzo[B][1,4]Oxazine-7-Sulfonamide], the values for the IC50 against Nav 1.7 [1], against Nav 1.7 [2] and against Nav 1.5 were 28.5 nM, 719 nM and greater than 10000 nM, respectively.

As to `N#Cc1cc(C(F)(F)F)ccc1N1CCOc2cc(S(=O)(=O)Nc3nccs3)ccc21` [Example 49, 4-(2-Cyano-4-(Trifluoromethyl)Phenyl)-N-(Thiazol-2-Yl)-3,4-Dihydro-2H-Benzo[B][1,4]Oxazine-7-Sulfonamide], the IC50 against Nav 1.7 [1] is 15 nM; against Nav 1.7 [2] it was 193 nM; against Nav 1.5, 1150 nM.

As for `CN1CCN(c2cc(C(F)(F)F)ccc2N2CCOc3cc(S(=O)(=O)Nc4nccs4)ccc32)CC1` [Example 50, 4-(2-(4-Methylpiperazin-1-Yl)-4-(Trifluoromethyl)Phenyl)-N-(Thiazol-2-Yl)-3,4-Dihydro-2H-Benzo[B][1,4]Oxazine-7-Sulfonamide 2,2,2-Trifluoroacetate], the figures for the half-maximal inhibitory concentration (IC50) against Nav 1.7 [1], at Nav 1.7 [2] and against Nav 1.5 were 117 nM, 315 nM and 957 nM, respectively.

Take `O=S(=O)(Nc1nccs1)c1ccc2c(c1)OCCN2c1ccc(C(F)(F)F)cc1-c1ccncc1` [Example 53, 4-(2-(Pyridin-4-Yl)-4-(Trifluoromethyl)Phenyl)-N-(Thiazol-2-Yl)-3,4-Dihydro-2H-Benzo[B][1,4]Oxazine-7-Sulfonamide 2,2,2-Trifluoroacetate]: the figures for the half-maximal inhibitory concentration (IC50) on Nav 1.7 [1], against Nav 1.7 [2] and against Nav 1.5 were 22.5 nM, 203 nM and 554 nM, respectively.

Regarding `O=S(=O)(Nc1nccs1)c1ccc2c(c1)OCCN2c1ccc(C(F)(F)F)cc1-c1cncnc1` [Example 54, 4-(2-(Pyrimidin-5-Yl)-4-(Trifluoromethyl)Phenyl)-N-(Thiazol-2-Yl)-3,4-Dihydro-2H-Benzo[B][1,4]Oxazine-7-Sulfonamide 2,2,2-Trifluoroacetate], the half-maximal inhibitory concentration (IC50) against Nav 1.7 [1] amounted to 11.5 nM; against Nav 1.7 [2], 585 nM; at Nav 1.5, 731 nM.

Turning to `O=S(=O)(Nc1ccno1)c1ccc2c(c1)OCCN2c1ccc(C(F)(F)F)cc1Cl` [Example 55, 4-(2-Chloro-4-(Trifluoromethyl)Phenyl)-N-(Isoxazol-5-Yl)-3,4-Dihydro-2H-Benzo[B][1,4]Oxazine-7-Sulfonamide], the IC50 was 2920 nM on Nav 1.7 [1], 19900 nM at Nav 1.7 [2] and greater than 10000 nM against Nav 1.5.

Turning to `N#Cc1cc(Cl)ccc1N1CCOc2cc(S(=O)(=O)Nc3nccs3)ccc21` [Example 56, 4-(4-Chloro-2-Cyanophenyl)-N-(Thiazol-2-Yl)-3,4-Dihydro-2H-Benzo[B][1,4]Oxazine-7-Sulfonamide], the half-maximal inhibitory concentration (IC50) turned out to be 51 nM against Nav 1.7 [1], 265 nM against Nav 1.7 [2] and 4790 nM at Nav 1.5.

Consider `N#Cc1ccccc1N1CCOc2cc(S(=O)(=O)Nc3ncns3)ccc21` [Example 57, 4-(2-Cyanophenyl)-N-(1,2,4-Thiadiazol-5-Yl)-3,4-Dihydro-2H-Benzo[B][1,4]Oxazine-7-Sulfonamide], for which the IC50 was determined as 154 nM on Nav 1.7 [1], 1930 nM on Nav 1.7 [2] and 6700 nM at Nav 1.5.

Regarding `N#Cc1ccccc1N1CCOc2cc(S(=O)(=O)Nc3nccs3)ccc21` [Example 58, 4-(2-Cyanophenyl)-N-(Thiazol-2-Yl)-3,4-Dihydro-2H-Benzo[B][1,4]Oxazine-7-Sulfonamide 2,2,2-Trifluoroacetate], the IC50 came to 225 nM against Nav 1.7 [1], 2550 nM against Nav 1.7 [2] and 6300 nM at Nav 1.5.

For the molecule `O=S(=O)(Nc1nccs1)c1ccc2c(c1)OCCN2c1ccccc1C1=CCNCC1` [Example 59, 4-(2-(1,2,3,6-Tetrahydropyridin-4-Yl)Phenyl)-N-(Thiazol-2-Yl)-3,4-Dihydro-2H-Benzo[B][1,4]Oxazine-7-Sulfonamide 2,2,2-Trifluoroacetate], the IC50 amounted to 15 nM at Nav 1.7 [1], 252 nM on Nav 1.7 [2] and 5570 nM against Nav 1.5.
